According to US7759331B2, “Pyridine-containing macroheterococylic compounds as kinase inhibitors” (Janssen Pharmaceutica NV, priority 2006, dated 2010):

Experiments:
Test in all cases: Protein kinase selectivity panel
Assay type in all cases: biochemical
Conditions in all cases: 1.0 μM compound, 10 μM ATP
MKK7β(h) = target: T1, MKK7β(h) (Homo sapiens, UniProt O14733)
T1 sequence (O14733 1-419): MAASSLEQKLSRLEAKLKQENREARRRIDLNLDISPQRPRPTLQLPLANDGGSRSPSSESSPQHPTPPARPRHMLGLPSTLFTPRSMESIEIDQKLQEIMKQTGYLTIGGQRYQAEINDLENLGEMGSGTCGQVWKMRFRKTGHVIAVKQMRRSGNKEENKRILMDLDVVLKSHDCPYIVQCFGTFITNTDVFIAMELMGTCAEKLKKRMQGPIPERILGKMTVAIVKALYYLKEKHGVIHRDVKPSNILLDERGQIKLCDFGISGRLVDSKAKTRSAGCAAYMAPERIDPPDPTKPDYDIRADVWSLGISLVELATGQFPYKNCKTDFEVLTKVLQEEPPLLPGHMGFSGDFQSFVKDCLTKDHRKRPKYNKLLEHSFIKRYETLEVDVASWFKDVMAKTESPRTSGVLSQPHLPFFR
Procedure, shortened: (§1)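 At a fixed 1.0 μM compound, activity toward peptide or protein substrates was determined with ATP at 10 μM.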

PKCθ(h) = PKCθ(h) (Homo sapiens, UniProt Q04759)
Chain of PKCθ(h) (Q04759 whole entry): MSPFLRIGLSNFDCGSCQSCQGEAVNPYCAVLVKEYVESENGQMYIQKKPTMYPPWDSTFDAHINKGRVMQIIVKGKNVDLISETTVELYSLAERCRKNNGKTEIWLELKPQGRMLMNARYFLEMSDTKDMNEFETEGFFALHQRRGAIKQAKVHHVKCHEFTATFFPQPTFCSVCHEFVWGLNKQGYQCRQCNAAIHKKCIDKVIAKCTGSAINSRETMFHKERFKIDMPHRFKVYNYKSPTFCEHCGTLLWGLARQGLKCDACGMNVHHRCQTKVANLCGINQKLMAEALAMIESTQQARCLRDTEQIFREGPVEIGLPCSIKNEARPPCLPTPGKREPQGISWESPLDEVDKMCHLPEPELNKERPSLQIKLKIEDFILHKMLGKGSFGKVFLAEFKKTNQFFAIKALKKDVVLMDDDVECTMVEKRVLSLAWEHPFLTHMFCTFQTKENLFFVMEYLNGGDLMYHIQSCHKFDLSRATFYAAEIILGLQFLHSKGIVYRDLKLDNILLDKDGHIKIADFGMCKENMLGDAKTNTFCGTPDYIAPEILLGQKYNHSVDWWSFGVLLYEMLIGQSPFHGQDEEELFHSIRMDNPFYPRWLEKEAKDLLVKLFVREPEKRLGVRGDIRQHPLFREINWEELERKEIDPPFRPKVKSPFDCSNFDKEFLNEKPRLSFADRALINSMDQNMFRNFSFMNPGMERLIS
Procedure, shortened: as §1

CaMKIV(h) = target: T2, CaMKIV(h) (Homo sapiens, UniProt Q16566)
T2 sequence (Q16566 1-473): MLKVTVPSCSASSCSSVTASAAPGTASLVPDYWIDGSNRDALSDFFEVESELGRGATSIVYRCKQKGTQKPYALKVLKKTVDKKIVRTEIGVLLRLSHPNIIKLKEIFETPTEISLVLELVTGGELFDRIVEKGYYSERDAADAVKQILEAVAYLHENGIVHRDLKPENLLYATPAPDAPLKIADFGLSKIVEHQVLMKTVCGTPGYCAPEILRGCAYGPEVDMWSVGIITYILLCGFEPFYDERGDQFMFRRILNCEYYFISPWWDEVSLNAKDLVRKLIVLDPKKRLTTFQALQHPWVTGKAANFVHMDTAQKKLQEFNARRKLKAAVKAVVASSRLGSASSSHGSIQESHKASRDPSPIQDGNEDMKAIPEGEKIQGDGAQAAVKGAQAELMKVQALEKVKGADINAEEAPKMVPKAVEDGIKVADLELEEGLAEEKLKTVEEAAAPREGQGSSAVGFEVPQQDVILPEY
Procedure, shortened: as §1

cSRC(h) = cSRC(h) (Homo sapiens, UniProt P12931)
Chain of cSRC(h) (P12931 whole entry): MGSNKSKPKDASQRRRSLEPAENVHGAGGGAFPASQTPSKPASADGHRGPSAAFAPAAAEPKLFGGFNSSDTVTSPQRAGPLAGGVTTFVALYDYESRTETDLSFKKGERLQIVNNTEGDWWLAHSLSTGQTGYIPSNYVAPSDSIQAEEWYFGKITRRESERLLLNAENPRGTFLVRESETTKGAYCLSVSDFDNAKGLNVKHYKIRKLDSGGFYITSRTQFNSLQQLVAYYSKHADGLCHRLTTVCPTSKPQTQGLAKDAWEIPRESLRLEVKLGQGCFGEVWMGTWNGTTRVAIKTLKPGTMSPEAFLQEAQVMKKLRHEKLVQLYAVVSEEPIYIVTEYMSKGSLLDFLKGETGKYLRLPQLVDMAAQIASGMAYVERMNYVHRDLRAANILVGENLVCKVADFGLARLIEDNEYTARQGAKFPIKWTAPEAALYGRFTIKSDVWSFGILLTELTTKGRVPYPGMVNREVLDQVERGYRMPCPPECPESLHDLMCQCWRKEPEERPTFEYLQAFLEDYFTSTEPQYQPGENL
Procedure, shortened: as §1

IR(h) = IR(h) (Homo sapiens, UniProt P06213)
Chain of IR(h) (P06213 28-1382): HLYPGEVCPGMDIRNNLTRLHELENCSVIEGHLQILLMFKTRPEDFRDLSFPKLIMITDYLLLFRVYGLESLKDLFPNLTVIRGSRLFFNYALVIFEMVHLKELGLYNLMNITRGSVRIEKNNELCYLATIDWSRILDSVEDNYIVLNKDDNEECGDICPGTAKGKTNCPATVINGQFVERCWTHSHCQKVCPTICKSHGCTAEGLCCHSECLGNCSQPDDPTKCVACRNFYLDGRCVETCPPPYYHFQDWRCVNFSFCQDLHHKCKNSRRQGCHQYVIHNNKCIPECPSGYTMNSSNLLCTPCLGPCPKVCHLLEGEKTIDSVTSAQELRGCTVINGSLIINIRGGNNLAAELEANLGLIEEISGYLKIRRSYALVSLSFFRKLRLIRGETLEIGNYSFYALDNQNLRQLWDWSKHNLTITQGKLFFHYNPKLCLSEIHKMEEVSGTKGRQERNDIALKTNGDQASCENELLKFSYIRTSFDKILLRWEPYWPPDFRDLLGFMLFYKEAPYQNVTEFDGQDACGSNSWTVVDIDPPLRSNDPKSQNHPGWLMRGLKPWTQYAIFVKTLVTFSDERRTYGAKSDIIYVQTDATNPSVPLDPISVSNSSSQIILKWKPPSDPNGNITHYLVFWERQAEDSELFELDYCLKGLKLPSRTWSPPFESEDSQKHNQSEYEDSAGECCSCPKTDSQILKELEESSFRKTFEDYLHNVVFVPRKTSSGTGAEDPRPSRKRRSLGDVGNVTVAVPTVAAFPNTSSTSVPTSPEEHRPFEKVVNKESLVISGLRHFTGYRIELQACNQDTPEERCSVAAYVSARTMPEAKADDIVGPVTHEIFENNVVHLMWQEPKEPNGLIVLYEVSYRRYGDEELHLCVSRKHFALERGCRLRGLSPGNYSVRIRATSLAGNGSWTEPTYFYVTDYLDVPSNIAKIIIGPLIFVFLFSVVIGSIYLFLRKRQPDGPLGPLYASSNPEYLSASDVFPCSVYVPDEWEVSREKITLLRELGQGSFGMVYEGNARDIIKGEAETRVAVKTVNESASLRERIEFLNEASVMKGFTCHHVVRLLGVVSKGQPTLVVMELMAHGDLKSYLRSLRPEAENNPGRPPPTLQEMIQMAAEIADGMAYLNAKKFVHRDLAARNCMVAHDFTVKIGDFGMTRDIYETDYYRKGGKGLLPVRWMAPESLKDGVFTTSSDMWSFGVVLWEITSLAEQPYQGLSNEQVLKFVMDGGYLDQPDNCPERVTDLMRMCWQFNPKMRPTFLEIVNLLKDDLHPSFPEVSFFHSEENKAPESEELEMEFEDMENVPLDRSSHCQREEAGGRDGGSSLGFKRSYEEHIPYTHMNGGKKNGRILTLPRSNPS
Procedure, shortened: as §1

PDK1(h) = target: T3, PDK1(h) (Homo sapiens, UniProt O15530)
T3 sequence (O15530 1-556): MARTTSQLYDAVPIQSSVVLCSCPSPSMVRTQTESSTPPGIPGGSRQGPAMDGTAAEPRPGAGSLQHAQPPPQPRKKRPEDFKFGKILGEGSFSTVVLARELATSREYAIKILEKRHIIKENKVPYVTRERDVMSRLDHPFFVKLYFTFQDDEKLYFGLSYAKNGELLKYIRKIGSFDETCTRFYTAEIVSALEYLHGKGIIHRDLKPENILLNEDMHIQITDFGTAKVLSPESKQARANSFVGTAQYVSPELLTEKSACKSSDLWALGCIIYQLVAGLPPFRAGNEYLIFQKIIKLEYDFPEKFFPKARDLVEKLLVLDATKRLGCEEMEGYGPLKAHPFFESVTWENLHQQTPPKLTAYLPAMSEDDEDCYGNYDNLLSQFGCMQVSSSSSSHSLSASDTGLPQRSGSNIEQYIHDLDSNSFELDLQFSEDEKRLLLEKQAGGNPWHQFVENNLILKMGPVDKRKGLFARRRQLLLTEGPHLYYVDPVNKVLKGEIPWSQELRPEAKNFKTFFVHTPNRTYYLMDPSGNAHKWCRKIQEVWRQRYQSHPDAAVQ
Procedure, shortened: as §1

SAPK4(h) = target: T4, SAPK4(h) (Homo sapiens, UniProt O15264)
T4 sequence (O15264 1-365): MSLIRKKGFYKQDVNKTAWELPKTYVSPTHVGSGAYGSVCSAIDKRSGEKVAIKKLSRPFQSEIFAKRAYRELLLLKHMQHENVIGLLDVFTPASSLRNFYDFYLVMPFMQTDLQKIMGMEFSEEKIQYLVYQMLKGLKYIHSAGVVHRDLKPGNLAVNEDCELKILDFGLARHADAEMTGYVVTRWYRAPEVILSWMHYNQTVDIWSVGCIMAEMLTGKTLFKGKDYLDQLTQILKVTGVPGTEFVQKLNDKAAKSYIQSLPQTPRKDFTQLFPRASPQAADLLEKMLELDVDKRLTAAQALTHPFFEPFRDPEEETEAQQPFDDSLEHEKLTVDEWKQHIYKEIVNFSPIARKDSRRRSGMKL
Procedure, shortened: as §1

Activity at Protein Kinase Assays (% of control), MKK7β(h) (MKK7β(h)) | Activity at Protein Kinase Assays (% of control), PKCθ(h) (PKCθ(h)) | Activity at Protein Kinase Assays (% of control), CaMKIV(h) (CaMKIV(h)) | Activity at Protein Kinase Assays (% of control), cSRC(h) (cSRC(h)) | Activity at Protein Kinase Assays (% of control), IR(h) (IR(h)) | Activity at Protein Kinase Assays (% of control), PDK1(h) (PDK1(h)) | Activity at Protein Kinase Assays (% of control), SAPK4(h) (SAPK4(h)) | Compound
97 % of control | 29 % of control | 112 % of control | 97 % of control | 110 % of control | 107 % of control | 102 % of control | O=C1NC(=O)C2=C1c1cn(c3ccccc13)CCCc1cc(nc(N3CCCC3)c1)CCCn1cc2c2ccccc21 [Cpd 6, 20-pyrrolidin-1-yl-4,14,19,26-tetraazaheptacyclo[24.6.1.1^7,14.1^18,22.0^2,6.0^8,13.0^27,32]pentatriaconta-1(33),2(6),7(35),8,10,12,18(34),19,21,27,29,31-dodecaene-3,5-dione]
85 % of control | 33 % of control | 99 % of control | 113 % of control | 87 % of control | 100 % of control | 102 % of control | O=C1NC(=O)C2=C1c1cn(c3ccccc13)CCCc1ccc(c(N3CCCC3)n1)CCCn1cc2c2ccccc21 [Cpd 7, 31-pyrrolidin-1-yl-5,15,25,30-tetraazaheptacyclo[27.2.2.1^5,12.1^18,25.0^6,11.0^13,17.0^19,24]pentatriaconta-1(31),6,8,10,12(35),13(17),18(34),19,21,23,29,32-dodecaene-14,16-dione]
88 % of control | 21 % of control | 92 % of control | 81 % of control | 91 % of control | 115 % of control | 101 % of control | CN(C)c1nc2ccc1CCCCn1cc(c3ccccc31)C1=C(C(=O)NC1=O)c1cn(c3ccccc13)CCC2 [Cpd 1, 31-(dimethylamino)-5,15,25,32-tetraazaheptacyclo[28.2.2.1^5,12.1^18,25.0^6,11.0^13,17.0^19,24]hexatriaconta-1(32),6,8,10,12(36),13(17),18(35),19,21,23,30,33-dodecaene-14,16-dione]
78 % of control | 27 % of control | 113 % of control | 105 % of control | 102 % of control | 104 % of control | 104 % of control | CN(C)c1cc2cc(n1)CCCn1cc(c3ccccc31)C1=C(C(=O)NC1=O)c1cn(c3ccccc13)CCC2 [Cpd 2, 20-(dimethylamino)-4,14,19,26-tetraazaheptacyclo[24.6.1.1^7,14.1^18,22.0^2,6.0^8,13.0^27,32]pentatriaconta-1(33),2(6),7(35),8,10,12,18(34),19,21,27,29,31-dodecaene-3,5-dione]
